# Measured values taken from US12590100B2, “Tetrahydro-spiroindoline-pyrrolopyrrole-triones inhibitors of the NRF2-β-TrCP interaction for use in the treatment of fatty liver disease” (Universidad Autonoma De Madrid, priority 2021, dated 2026).
# What was measured:
# [1] = tested on: transcriptional activity of NRF2; experiment: ARE luciferase reporter assay in MCF-7 c32 ARE-LUC cells; format: cell-based; details: 9 μM, 16 h
# Method: FIG. 4. […] MEFs in serum-depleted conditions were subjected to (A-C) 1 μM, 3 μM, or 10 μM of PHAR and 10 μM of SFN as a positive control for 16 h; or (D-F) 10 μM of PHAR for the indicated times. In both experiments, 0.1% DMSO was used as a vehicle. A), representative immunoblots of NRF2, HO1, KEAP1, LAMINB, and GAPDH as loading controls. B) and C), densitometric analysis of NRF2 and HO1 protein levels of the representative immunoblots depicted in (A), expressed as a ratio of NRF2/LAMINB or HO1/GAPDH. The data is depicted as means±SEM (n=3). Statistical analysis was performed with one-way ANOVA followed by the Bonferroni test to check inter-group differences. *p<0.05; ***p<0.001 vs. 0. D), representative immunoblots of NRF2, HO1, KEAP1, LAMINB, and GAPDH as loading controls. E) and F), Densitometric analysis of NRF2 and HO1 protein levels of the representative immunoblots of (D), expressed as a ratio of NRF2/LAMINB or HO1/GAPDH. The data is depicted as means±SEM (n=3). Statistical analysis was performed with one-way ANOVA followed by the Bonferroni test to check inter-group differences. *p<0.05; ***p<0.001 vs. 0. […] Luciferase activity was measured after 16 h of treatment. […] The mRNA levels of Hmox1, Nqo1, Aox1, Glc, and Gclm after 8 h of treatment were determined by means of pRT-PCR and normalized by means of average LaminB, Gapdh, and β-actin. […]
# SCF-βTrCP / NRF2 = SCF-βTrCP / NRF2 (Homo sapiens, UniProt Q9Y297); experiment: In vitro ubiquitination of phosphorylated NRF2 by the βTrCP complex; format: biochemical; details: for ubiquitination (polyubiquitination) of NRF2 by βTrCP: PHAR 3 μM, 1 hour at 25° C., western blot
# Method: In vitro kinase assay and in vitro ubiquitination. For the recognition and degradation of NRF2 by βTrCP, the serines 335, 338, 342 and 347 located at the Neh6 domain of NRF2 need to be previously phosphorylated by the kinase GSK-3β (FIG. 1). Therefore, to obtain the phosphorylated substrate, 20 ng recombinant NRF2-DETGE was used together with 0.5 μg of recombinant GSK-3β incubated at 30° C. for 60 min. The result was analyzed by western blot. After confirming the existence of phosphorylation in the residues of interest, an in vitro ubiquitination assay was carried out using the recombinant proteins that make up the E3 ubiquitin ligase complex. The ubiquitination reaction was carried out using: ATP (2 mM), […], SCF-βTrCP (450 nM), and non-phosphorylated or phosphorylated NRF2 (20 ng), in a specific ubiquitination buffer (30 mM Tris pH 7.6, 5 mM MgCl2, 2 mM dithiothreitol, 100 mM NaCl). Before the ubiquitination reactions, the E1, Cdc34b, and ubiquitin components were incubated together for 2 min to allow the E2 thioester bond to form. The reactions were incubated for 1 hour at 25° C. in the presence or absence of PHAR (3 μM) in order to determine whether or not PHAR inhibits ubiquitination by βTrCP. […] The PI3K/AKT signaling pathway is inhibited, and therefore GSK-3β is activated with the PI3K inhibitor, LY294002. As a result, NRF2 is phosphorylated by GSK-3β and marked for degradation by means of interaction with β-TrCP. Therefore, if PHAR is capable of inhibiting βTrCP-NRF2 interaction, the NRF2 levels will remain stable independently of the activation and phosphorylation by GSK-3β. […]
# FIG. 6. […] Phosphorylation at residues 335, 338, 342 and 347 was analyzed by western blot. […] Polyubiquitinated NRF2 was detected by western blot with anti-ubiquitin antibody. […] E), densitometric analysis of NRF2 protein levels of the representative immunoblot of (D), expressed as a ratio of NRF2/GAPDH. […] G), densitometric analysis of NRF2 and HO1 protein levels of the representative immunoblots of (F), expressed as a ratio of NRF2 and HO1/GAPDH. […]
# Sequence of SCF-βTrCP / NRF2 (Q9Y297 whole entry, the tested form may be a part): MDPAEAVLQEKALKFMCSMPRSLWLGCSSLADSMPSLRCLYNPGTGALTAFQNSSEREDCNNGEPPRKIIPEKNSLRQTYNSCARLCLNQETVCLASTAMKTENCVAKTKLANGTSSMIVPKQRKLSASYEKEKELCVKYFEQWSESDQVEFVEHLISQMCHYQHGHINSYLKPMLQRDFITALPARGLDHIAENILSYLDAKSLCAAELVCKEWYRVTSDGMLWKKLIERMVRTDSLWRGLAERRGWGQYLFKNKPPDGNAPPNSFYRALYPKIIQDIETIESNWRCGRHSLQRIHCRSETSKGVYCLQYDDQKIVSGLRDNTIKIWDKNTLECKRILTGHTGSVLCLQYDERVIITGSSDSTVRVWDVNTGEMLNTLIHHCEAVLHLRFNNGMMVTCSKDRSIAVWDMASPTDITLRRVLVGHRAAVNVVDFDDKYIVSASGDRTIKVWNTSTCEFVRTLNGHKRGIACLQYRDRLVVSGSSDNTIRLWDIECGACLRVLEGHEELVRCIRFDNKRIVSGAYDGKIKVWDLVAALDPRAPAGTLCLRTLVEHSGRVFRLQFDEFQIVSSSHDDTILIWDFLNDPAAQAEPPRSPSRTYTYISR
# Sequence of SCF-βTrCP / NRF2 (P63208 whole entry partner, the tested form may be a part): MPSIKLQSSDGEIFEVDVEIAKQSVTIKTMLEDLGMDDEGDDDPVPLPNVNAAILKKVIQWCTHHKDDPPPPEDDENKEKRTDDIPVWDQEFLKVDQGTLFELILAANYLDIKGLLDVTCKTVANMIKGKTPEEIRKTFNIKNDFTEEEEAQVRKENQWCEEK
# Sequence of SCF-βTrCP / NRF2 (Q13616 whole entry partner, the tested form may be a part): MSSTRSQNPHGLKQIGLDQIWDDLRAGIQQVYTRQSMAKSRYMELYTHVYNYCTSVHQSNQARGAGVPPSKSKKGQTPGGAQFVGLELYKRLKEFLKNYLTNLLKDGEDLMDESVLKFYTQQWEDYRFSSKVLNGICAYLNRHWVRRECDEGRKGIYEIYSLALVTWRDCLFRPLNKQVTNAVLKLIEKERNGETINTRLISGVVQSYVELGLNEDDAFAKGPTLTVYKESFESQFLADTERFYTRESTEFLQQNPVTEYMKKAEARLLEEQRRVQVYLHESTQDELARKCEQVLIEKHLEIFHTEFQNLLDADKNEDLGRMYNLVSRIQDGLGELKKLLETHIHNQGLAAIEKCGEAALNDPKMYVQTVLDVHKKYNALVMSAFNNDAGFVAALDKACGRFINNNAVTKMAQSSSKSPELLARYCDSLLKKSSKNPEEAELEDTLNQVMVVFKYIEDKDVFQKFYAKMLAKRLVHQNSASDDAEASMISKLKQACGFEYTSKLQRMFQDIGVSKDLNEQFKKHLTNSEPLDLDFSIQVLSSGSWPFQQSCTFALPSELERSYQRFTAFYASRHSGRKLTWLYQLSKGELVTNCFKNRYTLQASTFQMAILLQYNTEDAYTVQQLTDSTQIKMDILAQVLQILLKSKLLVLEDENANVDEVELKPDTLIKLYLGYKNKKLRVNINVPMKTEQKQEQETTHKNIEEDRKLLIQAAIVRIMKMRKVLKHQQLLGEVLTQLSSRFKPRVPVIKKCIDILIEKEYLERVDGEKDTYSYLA
# Sequence of SCF-βTrCP / NRF2 (P62877 whole entry partner, the tested form may be a part): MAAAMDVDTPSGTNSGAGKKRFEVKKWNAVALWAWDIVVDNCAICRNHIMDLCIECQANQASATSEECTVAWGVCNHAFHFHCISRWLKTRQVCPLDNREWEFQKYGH
smiles,measurement,setting,value
O=C1[C@@H]2[C@H](Cc3c[nH]c4ccccc34)N[C@]3(C(=O)Nc4ccc(Cl)cc43)[C@@H]2C(=O)N1c1ccc2c(c1)OCCO2 [PHAR],increase in luciferase activity,[1],~4 fold
same,ubiquitination (polyubiquitination) of NRF2 by βTrCP,SCF-βTrCP / NRF2,prevents the ubiquitination of NRF2
same,ubiquitination (polyubiquitination) of NRF2 by βTrCP,SCF-βTrCP / NRF2; listed as PH,polyubiquitination was considerably lower
same,concentration from which substrate polyubiquitination starts to be reduced,SCF-βTrCP / NRF2; dose curve 3-3000 nM,100 nM
